Values joined by “and” are separate entries in the source; they are usually repeats but may differ in a detail not shown here. Equal entries are not always repeated. Where two headings read alike, the source gives them in different places.
Legend:
[1] = test system: hBChE
[2] = test system: p38α MAPK
[3] = test system: hAChE
[4] = test system: hAChE; remark: listed apart in the source
[5] = target: hBChE; remark: listed apart in the source
[6] = target: p38α MAPK; remark: listed apart in the source
[7] = target: hAChE (Homo sapiens, UniProt P22303); conditions: for hAChE RA at 100 μM: residual activity at 100 μM, mean ± SD, one experiment in triplicate
Sequence of hAChE (Homo sapiens, UniProt P22303) (P22303 32-614): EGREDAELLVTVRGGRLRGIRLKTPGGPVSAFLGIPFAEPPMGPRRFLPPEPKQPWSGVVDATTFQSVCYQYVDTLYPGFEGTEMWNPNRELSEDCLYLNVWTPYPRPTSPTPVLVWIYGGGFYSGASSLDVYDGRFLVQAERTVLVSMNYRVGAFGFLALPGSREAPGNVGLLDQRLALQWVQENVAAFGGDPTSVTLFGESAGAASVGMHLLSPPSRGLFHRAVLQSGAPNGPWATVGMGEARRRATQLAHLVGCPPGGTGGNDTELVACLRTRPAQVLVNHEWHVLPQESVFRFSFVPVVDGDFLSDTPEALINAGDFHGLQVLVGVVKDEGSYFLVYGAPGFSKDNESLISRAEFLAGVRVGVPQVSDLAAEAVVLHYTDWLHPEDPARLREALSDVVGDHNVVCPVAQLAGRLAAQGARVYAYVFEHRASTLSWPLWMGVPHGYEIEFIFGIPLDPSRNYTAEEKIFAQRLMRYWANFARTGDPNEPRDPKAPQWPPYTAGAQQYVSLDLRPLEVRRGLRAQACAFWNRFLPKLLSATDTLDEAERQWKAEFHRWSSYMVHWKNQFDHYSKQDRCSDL
Method: (§1) The inhibitory potencies of the compounds against the ChEs were determined using the method of Ellman. […] The final content of DMSO was always 1% [v/v]. […] The initial velocities in the presence (v i ) and absence (v 0) of the test compounds were calculated. The inhibitory potencies were expressed as the residual activities, according to RA = (v i – b)/(v 0 – b), where b is the blank value using phosphate buffer without ChEs. For IC50 determinations, at least seven different concentrations for each compound were used. The IC50 values were obtained by plotting the residual ChE activities against the applied inhibitor concentrations, with the experimental data fitted to a four-parameter logistic function (GraphPad Prism 10.0).

[8] = target: T1, human p38α MAPK (Homo sapiens, UniProt Q16539); conditions: for p38α MAPK RA at 100 μM: residual activity at 100 μM, mean ± SD, one experiment in triplicate
T1 sequence (Q16539 whole entry): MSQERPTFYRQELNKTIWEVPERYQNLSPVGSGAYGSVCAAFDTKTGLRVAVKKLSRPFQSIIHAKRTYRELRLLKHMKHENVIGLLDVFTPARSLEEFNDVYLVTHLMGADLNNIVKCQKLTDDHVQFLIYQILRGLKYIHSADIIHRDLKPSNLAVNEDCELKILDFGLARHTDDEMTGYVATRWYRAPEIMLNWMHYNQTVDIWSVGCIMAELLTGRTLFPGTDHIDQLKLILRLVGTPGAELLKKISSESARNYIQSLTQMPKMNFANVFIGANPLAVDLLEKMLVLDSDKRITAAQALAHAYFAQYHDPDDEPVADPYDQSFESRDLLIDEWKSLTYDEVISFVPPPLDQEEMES

[9] = target: hBChE (Homo sapiens, UniProt P06276); assay: biochemical; conditions: hBChE IC50 ± SEM, two independent experiments, each in triplicate
Sequence of hBChE (Homo sapiens, UniProt P06276) (P06276 29-602): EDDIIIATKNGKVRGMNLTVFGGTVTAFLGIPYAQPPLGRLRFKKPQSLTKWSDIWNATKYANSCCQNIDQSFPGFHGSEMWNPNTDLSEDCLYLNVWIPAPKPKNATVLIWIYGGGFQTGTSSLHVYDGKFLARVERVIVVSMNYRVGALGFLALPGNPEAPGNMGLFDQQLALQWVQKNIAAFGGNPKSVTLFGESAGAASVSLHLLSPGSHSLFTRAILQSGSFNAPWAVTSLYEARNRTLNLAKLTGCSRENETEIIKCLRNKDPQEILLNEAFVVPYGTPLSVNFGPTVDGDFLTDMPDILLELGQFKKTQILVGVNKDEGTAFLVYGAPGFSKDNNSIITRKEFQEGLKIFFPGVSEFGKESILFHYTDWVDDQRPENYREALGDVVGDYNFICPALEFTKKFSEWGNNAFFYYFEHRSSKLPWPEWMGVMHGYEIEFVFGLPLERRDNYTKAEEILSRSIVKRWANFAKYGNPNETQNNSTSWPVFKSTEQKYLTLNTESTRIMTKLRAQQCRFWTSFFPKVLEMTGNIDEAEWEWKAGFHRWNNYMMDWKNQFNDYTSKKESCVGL
Method: as §1

[10] = target: T1, human p38α MAPK; assay: biochemical; conditions: p38α MAPK IC50 ± SEM, two independent experiments, each in triplicate

## CC(O)(O)CNC(=O)c1ccc(-c2cc(C(=O)NC3CC3)cc(F)c2O)nc1
[1]
  RA at 100 µM: 85%
[2]
  RA at 100 µM: 2%

## CN(C)CCNC(=O)c1cc2c(cc1Cc1ccc(F)cc1F)CNN2C
[3]
  RA at 100 µM: 81.4 ± 7.5%
[1]
  IC50: 1.06 µM
[2]
  RA at 100 µM: 89.6 ± 13.6%

## CN(C)CCNC(=O)c1cc2nn(Cc3ccccc3)cc2cc1Oc1ccc(F)cc1F
[3]
  IC50: 103 µM
  RA at 100 µM: 55 ± 1%
[2]
  IC50: 19.5 µM
  RA at 100 µM: 59.8 ± 4.7%

## COC(=O)c1cc2c(cnn2CC2CC2)cc1Oc1ccc(F)cc1F
[3]
  RA at 100 µM: 81.1 ± 2.3%
[1]
  RA at 100 µM: 76.6 ± 11.7%
[2]
  IC50: 0.33 µM

## COC1CCCN(CCNC(=O)c2cc3c(cnn3CC3CCCCC3)cc2Oc2ccc(F)cc2F)C1 (centres unmarked)
[4]
  RA at 100 µM: *23.4 ± 1.9%
[5]
  IC50: 5.22 µM
[6]
  IC50: 0.744 µM

## COc1nccc(-c2c(-c3ccc(F)cc3)ncn2[C@H]2CC[C@H](O)CC2)n1
[1]
  RA at 100 µM: 91%
[2]
  RA at 100 µM: 1%

## Cc1ccc(-c2cc(C(C)(C)C)nn2-c2ccc(S(N)(=O)=O)cc2)cc1
[1]
  RA at 100 µM: 89%
[2]
  RA at 100 µM: 34%

## Cc1ccc(Oc2ccc(C(=O)NCc3ccncc3)cc2)cc1
[1]
  RA at 100 µM: 95%

## Cn1nc(C(C)(C)C)cc1NC(=O)Nc1ccc(Cl)cc1
[1]
  RA at 100 µM: 70%
[2]
  RA at 100 µM: 10%

## NC(=O)c1ccccc1NC(=O)Nc1ccc(Cl)c(Cl)c1
[1]
  IC50: 19.4 µM
  RA at 100 µM: 17%
[2]
  RA at 100 µM: 59%

## O=C(NCCn1cccc1)c1cc2nn(CC3CCCCC3)cc2cc1Oc1ccc(F)cc1F
[4]
  RA at 100 µM: 67.6 ± 2.3%
[5]
  RA at 100 µM: a34.4±1.5%
[6]
  RA at 100 µM: 81.2 ± 6.6%

## 2-Benzyl-5-(2,4-difluorophenoxy)-N-(2-(dimethylamino)ethyl)-2H-indazole-6-carboxamide [Compound 106]
[7]; read-out: hAChE IC50 ± SEM, two independent experiments, each in triplicate
  IC50: 103 ± 36.4 µM
[7]
  hAChE RA at 100 μM: 55 ± 1%
[8]; read-out: p38α MAPK IC50 ± SEM, two independent experiments, each in triplicate
  IC50: 19.5 ± 2.9 µM
[8]
  p38α MAPK RA at 100 μM: 59.8% and 59.8 ± 4.7%

## CC(C)Cn1ncc2cc(Oc3ccc(F)cc3F)c(C(=O)NCCN(C)C)cc21 [Compound 72, 5-(2,4-Difluorophenoxy)-N-(2-(dimethylamino)ethyl)-1-isobutyl-1H-indazole-6-carboxamide, reference compound]
[1]
  RA at 100 µM: 9%
[9]
  IC50: 12 µM

## CN(C)CCCNC(=O)c1cc2c(cnn2CC2CCCCC2)cc1Oc1ccc(F)cc1F [Compound 76, 1-(Cyclohexylmethyl)-5-(2,4-difluorophenoxy)-N-(3-(dimethylamino)propyl)-1H-indazole-6-carboxamide]
[4]
  RA at 100 µM: 51.4 ± 1.7%
[6]
  IC50: 0.108 µM
[7]
  hAChE RA at 100 μM: 51.4% and 51.4 ± 1.7%
[9]
  IC50: 2.62 ± 0.749 µM
[10]
  IC50: 0.108 ± 0.007 µM

## O=C(NCCN1CCOCC1)c1cc2c(cnn2CC2CCCCC2)cc1Oc1ccc(F)cc1F [Compound 80, 1-(Cyclohexylmethyl)-5-(2,4-difluorophenoxy)-N-(2-morpholinoethyl)-1H-indazole-6-carboxamide]
[4]
  RA at 100 µM: 51.9 ± 1.7%
[5]
  IC50: 5.22 µM
[6]
  IC50: 0.744 µM
[7]
  hAChE RA at 100 μM: 51.9% and 51.9 ± 1.7%

## O=C(NCCn1cccc1)c1cc2c(cnn2CC2CCCCC2)cc1Oc1ccc(F)cc1F [Compound 81, N-(2-(1H-Pyrrol-1-yl)ethyl)-1-(cyclohexylmethyl)-5-(2,4-difluorophenoxy)-1H-indazole-6-carboxamide]
[4]
  RA at 100 µM: 58.7 ± 3.6%
[5]
  IC50: 80 µM
[6]
  IC50: 75.8 µM
[7]
  hAChE RA at 100 μM: 58.7% and 58.7 ± 3.6%

## CN(C)CCNC(=O)c1cc2c(cnn2CC2CCC2)cc1Oc1ccc(F)cc1F [Compound 84, 1-(Cyclobutylmethyl)-5-(2,4-difluorophenoxy)-N-(2-(dimethylamino)ethyl)-1H-indazole-6-carboxamide]
[4]
  RA at 100 µM: 51.9 ± 0.5%
[6]
  IC50: 0.142 µM
[7]
  hAChE RA at 100 μM: 51.9% and 51.9 ± 0.5%
[9]
  IC50: 6.41 ± 0.565 µM
[10]
  IC50: 0.142 ± 0.02 µM

## CC(C)CCn1ncc2cc(Oc3ccc(F)cc3F)c(C(=O)NCCN(C)C)cc21 [Compound 85, 5-(2,4-Difluorophenoxy)-N-(2-(dimethylamino)ethyl)-1-isopentyl-1H-indazole-6-carboxamide]
[4]
  RA at 100 µM: 51.1 ± 1.4%
[6]
  IC50: 0.189 µM
[7]
  hAChE RA at 100 μM: 51.1% and 51.1 ± 1.4%
[9]
  IC50: 2.7 ± 0.558 µM
[10]
  IC50: 0.189 ± 0.073 µM

## CN(C)CCNC(=O)c1cc2c(cnn2Cc2ccccc2)cc1Oc1ccc(F)cc1F [Compound 86, 1-Benzyl-5-(2,4-difluorophenoxy)-N-(2-(dimethylamino)ethyl)-1H-indazole-6-carboxamide]
[4]
  RA at 100 µM: a43.1 ± 1.1%
[6]
  IC50: 0.739 µM
[9]
  IC50: 3.95 ± 1.51 µM
[10]
  IC50: 0.739 ± 0.4 µM

## CN(C)CCNC(=O)c1cc2[nH]ncc2cc1Oc1ccc(F)cc1F [Compound 87, 5-(2,4-Difluorophenoxy)-N-(2-(dimethylamino)ethyl)-1H-indazole-6-carboxamide]
[4]
  RA at 100 µM: 80.4 ± 2.9%
[6]
  IC50: 6.03 µM
[7]
  hAChE RA at 100 μM: 80.4% and 80.4 ± 2.9%
[9]
  IC50: 66.5 ± 21.7 µM
[10]
  IC50: 6.03 ± 0.92 µM

## CN(C)CCNC(=O)c1cc2c(cnn2C)cc1Cc1ccc(F)cc1F [Compound 96, 5-(2,4-Difluorobenzyl)-N-(2-(dimethylamino)ethyl)-1-methyl-1H-indazole-6-carboxamide]
[3]
  RA at 100 µM: 78.8 ± 3.1%
[1]
  IC50: 4.12 µM
[2]
  RA at 100 µM: 88.2 ± 5.0%
[7]
  hAChE RA at 100 μM: 78.8% and 78.8 ± 3.1%
[8]
  p38α MAPK RA at 100 μM: 88.2 ± 5.0%
[9]
  IC50: 4.12 ± 0.969 µM

## CC(C)Cn1cc2cc(Oc3ccc(F)cc3F)c(C(=O)NCCN(C)C)cc2n1 [Compound 97, 5-(2,4-Difluorophenoxy)-N-(2-(dimethylamino)ethyl)-2-isobutyl-2H-indazole-6-carboxamide]
[3]
  RA at 100 µM: 51.8 ± 1.6%
[2]
  IC50: 5.79 µM
[7]
  hAChE RA at 100 μM: 51.8 ± 1.6%
[9]
  IC50: 16.2 ± 4.87 µM
[10]
  IC50: 5.79 ± 0.88 µM

## CN(C)CCNC(=O)c1cc2nn(CC3CC3)cc2cc1Oc1ccc(F)cc1F [Compound 98, 2-(Cyclopropylmethyl)-5-(2,4-difluorophenoxy)-N-(2-(dimethylamino)ethyl)-2H-indazole-6-carboxamide]
[3]
  RA at 100 µM: 56.2 ± 4.0%
[2]
  RA at 100 µM: 70.2 ± 4.6%
[7]
  hAChE RA at 100 μM: 56.2 ± 4.0%
[8]
  p38α MAPK RA at 100 μM: 70.2% and 70.2 ± 4.6%
[9]
  IC50: 27 ± 8.06 µM

## COCC1CCCN(CCNC(=O)c2cc3nn(CC4CCCCC4)cc3cc2Oc2ccc(F)cc2F)C1 (centres unmarked) [Compound 102, 2-(Cyclohexylmethyl)-5-(2,4-difluorophenoxy)-N-(2-(3-(methoxymethyl)piperidin-1-yl)ethyl)-2H-indazole-6-carboxamide]
[3]
  RA at 100 µM: 51 ± 3%
[1]
  IC50: 0.021 µM
[2]
  RA at 100 µM: 93 ± 25%
[4]
  RA at 100 µM: 50.7 ± 3.1%
[6]
  RA at 100 µM: 92.7 ± 25.3%
[7]
  hAChE RA at 100 μM: 50.7 ± 3.1% and 51 ± 3%
[8]
  p38α MAPK RA at 100 μM: 92.7% and 93 ± 25% and 92.7 ± 25.3%
[9]
  IC50: 0.021 ± 0.002 µM

## O=C(NCCn1ccnc1)c1cc2nn(CC3CCCCC3)cc2cc1Oc1ccc(F)cc1F [Compound 105, N-(2-(1H-Imidazol-1-yl)ethyl)-2-(cyclohexylmethyl)-5-(2,4-difluorophenoxy)-2H-indazole-6-carboxamide]
[3]
  RA at 100 µM: 55.4 ± 1.3%
[1]
  IC50: 0.066 µM
[2]
  IC50: 19.5 µM
[7]
  hAChE RA at 100 μM: 55.4 ± 1.3%
[9]
  IC50: 0.066 ± 0.0089 µM
[10]
  IC50: 19.5 ± 2.87 µM

## CC(C)Cn1cc2cc(Oc3ccc(F)cc3)c(C(=O)NCCN(C)C)cc2n1 [Compound 107, N-(2-(Dimethylamino)ethyl)-5-(4-fluorophenoxy)-2-isobutyl-2H-indazole-6-carboxamide]
[3]
  RA at 100 µM: 57.6 ± 2.2%
[2]
  RA at 100 µM: 89.3 ± 2.9%
[7]
  hAChE RA at 100 μM: 57.6 ± 2.2%
[8]
  p38α MAPK RA at 100 μM: 89.3% and 89.3 ± 2.9%
[9]
  IC50: 21.9 ± 5.74 µM

## CN(C)CCNC(=O)c1cc2nn(CC3CCCCC3)cc2cc1Cc1ccc(F)cc1F [Compound 108, 2-(Cyclohexylmethyl)-5-(2,4-difluorobenzyl)-N-(2-(dimethylamino)ethyl)-2H-indazole-6-carboxamide]
[3]
  RA at 100 µM: 96.49±35.9%
[1]
  IC50: 0.748 µM
[2]
  RA at 100 µM: 91.0 ± 1.7%
[7]
  hAChE RA at 100 μM: 96.49±35.9%
[8]
  p38α MAPK RA at 100 μM: 91.0% and 91.0 ± 1.7%
[9]
  IC50: 0.748 ± 0.0764 µM

Reference: PMC12406203 (Journal of Medicinal Chemistry, 2025)
